{"source": "patent US20180008629A1", "about": "“Compositions and Methods for Treating NLRP3 Inflammasome-Related Diseases and Disorders” (priority 2015, published 2018)", "key": {"BMDMs [1]": {"tested_on": "BMDMs", "assay": "BMDM viability and proliferation (MTT assay)", "type": "cell-based, mouse", "protocol": "(§1) The BMDM proliferation in response to BHB treatment was analyzed using the MTT assay according to manufacturer's instructions. The BMDM were incubated with Asante Potassium Green 1 (APG-1) which is a fluorescent indicator with a Kd for measuring cytosolic K+ concentration. It has non-ratiometric large fluorescence dynamic range allows sensing of even small changes in K+ concentration. Optimal excitation was recorded at 517 nm. In addition, the K+ was measured in BMDMs using an ElementXR or Agilent 7700 Inductively Coupled Mass Spectrometry (ICP-MS) using previously described methods (Muñoz-Planillo et al., 2013, Immunity 38:1142-1153). For error analysis, samples and standard solutions were run in duplicate."}, "BMDMs [2]": {"tested_on": "BMDMs", "assay": "Intracellular K+ measurement in BMDMs (APG-1 dye, ICP-MS)", "type": "cell-based, mouse", "details": "LPS primed BMDMs", "protocol": "as §1"}, "human neutrophils": {"tested_on": "human neutrophils", "assay": "IL-1β secretion from human peripheral blood neutrophils (ELISA)", "type": "cell-based", "details": "peripheral blood neutrophils from adult (30-40 years) and old (65-75 years)", "protocol": "BHB was also observed to inhibit IL1B production from human neutrophils irrespective of age. Peripheral blood neutrophils from adult (30-40 years) and old (65-75 years) were enriched and stimulated as indicated (FIG. 20). IL-1β secretion was measured in culture supernatants by ELISA. Data are expressed as mean±S.E.M (*p<0.01)."}, "[3]": {"tested_on": "neutrophil hyperactivation", "assay": "MSU peritonitis model in old mice fed ketogenic diet", "type": "in vivo, mouse", "details": "ketogenic diet one week prior to MSU challenge", "protocol": "Old mice were fed a ketogenic diet for one week prior to MSU challenge to induce neutrophil infiltration and inflammasome activation (FIG. 16A). Body weights and blood BHB concentrations were measured daily. Four hours after MSU injection, total peritoneal cells were collected and analyzed by FACS to enumerate total neutrophil infiltration (FIG. 16B). Gene expression within peritoneal cells was measured by RT-PCR (FIG. 16C). Expression was normalized to Gapdh expression and data are represented as expression relative to adults. Data are pooled from two independent experiments (FIGS. 16B and 16C). Statistical differences were calculated by 2-way ANOVA (FIG. 16A) or 1-way ANOVA (FIG. 16B). […]\nMice were fed a ketogenic diet for 1 week prior to an increase in BHB levels and then infection or peritonitis was induced by injection of monosodium urate. Body weights and blood BHB concentrations were measured daily in old mice during ketogenic diet feeding, prior to MSU injection (FIG. 19A). […] The peritoneal cells were isolated and pro-inflammatory cytokine Il1b, Nlrp3 and Tnf gene expression was measured by RT-PCR (FIG. 19B). […] Blood BHB levels were measured in adult mice 24 hr post-infection with Staphylococcus aureus (FIG. 19C). Total cells collected from brocho-aleveolar lavage BAL fluid from lungs 24 hr post-infection were quantified (FIG. 19D). […]"}, "[4]": {"assay": "Gout induced by intra-articular injection of MSU in rats fed ketogenic diet", "type": "in vivo, rat", "details": "ketogenic diet 1 week", "protocol": "Rats were fed a ketogenic diet for 1 week prior to the induction of gout by intra-articular injection of MSU. Blood BHB levels were measured in rats after 1 week ketogenic diet feeding, prior to injection with MSU (FIG. 21A). Knee thickness was measured daily (FIG. 21B). The increase in knee swelling relative to baseline thickness was measured 2 days after gout induction (FIG. 21C). Serum IL-1β was measured by ELISA on day 2 post-MSU injection (FIG. 21D)."}, "NLRP3 inflammasome": {"target": "NLRP3 inflammasome (Mus musculus, UniProt Q8R4B8)", "sequence (Q8R4B8 whole entry)": "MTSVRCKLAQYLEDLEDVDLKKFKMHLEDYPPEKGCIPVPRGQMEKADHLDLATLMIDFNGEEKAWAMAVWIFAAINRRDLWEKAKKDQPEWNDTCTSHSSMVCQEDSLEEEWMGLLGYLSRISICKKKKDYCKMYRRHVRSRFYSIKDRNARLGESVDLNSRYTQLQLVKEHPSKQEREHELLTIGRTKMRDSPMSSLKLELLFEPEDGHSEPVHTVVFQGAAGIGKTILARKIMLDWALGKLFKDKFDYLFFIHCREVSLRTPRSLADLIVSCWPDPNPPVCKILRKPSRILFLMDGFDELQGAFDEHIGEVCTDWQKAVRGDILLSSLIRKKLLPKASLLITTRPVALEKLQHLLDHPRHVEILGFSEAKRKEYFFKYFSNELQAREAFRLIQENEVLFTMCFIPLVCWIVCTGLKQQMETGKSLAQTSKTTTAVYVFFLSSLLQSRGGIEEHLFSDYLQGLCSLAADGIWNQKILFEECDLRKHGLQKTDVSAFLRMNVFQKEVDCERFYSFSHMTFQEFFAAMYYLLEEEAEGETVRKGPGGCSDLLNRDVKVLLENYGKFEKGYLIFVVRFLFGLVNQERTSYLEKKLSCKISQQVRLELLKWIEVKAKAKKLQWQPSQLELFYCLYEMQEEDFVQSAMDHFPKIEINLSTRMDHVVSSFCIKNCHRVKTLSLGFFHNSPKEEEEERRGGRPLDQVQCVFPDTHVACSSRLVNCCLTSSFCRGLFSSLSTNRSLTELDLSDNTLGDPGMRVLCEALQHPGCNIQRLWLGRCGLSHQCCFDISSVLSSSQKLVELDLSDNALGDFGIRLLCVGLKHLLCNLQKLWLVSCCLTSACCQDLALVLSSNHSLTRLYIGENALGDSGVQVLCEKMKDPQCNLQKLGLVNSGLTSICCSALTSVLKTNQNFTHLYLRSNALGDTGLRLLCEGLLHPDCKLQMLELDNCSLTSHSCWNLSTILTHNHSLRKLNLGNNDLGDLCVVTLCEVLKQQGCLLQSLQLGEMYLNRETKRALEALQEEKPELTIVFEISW", "assay": "NLRP3 inflammasome activation in LPS primed BMDMs (caspase-1 / IL-1β immunoblot)", "type": "cell-based", "design": "endogenous in cells; host or cells: mouse bone marrow derived macrophages (A1)", "procedure": "All steps were performed using sterile technique. Femurs were collected in RPMI (Life Technologies, Grand Island, N.Y.)+5% FBS (R5; Omega Scientific, Tarzana, Calif.). Both ends of the femur were then cut and the femur was flushed with R5. The bone marrow was centrifuge at 450 g for 5 min, the supernatant was decanted and red blood cells were lysed using ACK lysis buffer (Quality Biological, Gaithersburg, Md.). After neutralization with R5, bone marrow cells were centrifuged, resuspended in 10 ml of R5 and placed into a 6 well plate. Non-adherent cells were collected the following morning. The non-adherent cells were resuspended at 4×10^6 cells/ml in media consisting of 10 ml supernatant of non-adherent cells, 7.2 ml L929 conditioned media, 6.8 ml R5 and MCSF (long/ml; R&D Systems, Minneapolis, Minn.). An additional 2 ml of fresh media was added 4 d after isolation. Non-adherent cells were collected on day 7, separated by density gradient separation using Fico/Lite (Atlanta Biologicals, Flowery Branch, Ga.) and mononuclear cells were collected. Cells were rinsed twice with Dulbecco's PBS+2% FBS, and resuspended at 1×10^6 cells/ml. Cells were treated with ultrapure LPS (Invivogen, San Diego, Calif.) alone or in combination with 5 mM ATP (Sigma, St. Louis, Mo.) or 200 μM palmitate-BSA (Sigma). The BMDMs were also primed with ultrapure lipid A (10 μg/ml; Invivogen, San Diego, Calif.), lipoteichoic acid (10 μg/ml; Invivogen), or Pam3-CSK4 (10 μg/ml; Invivogen) for 4 hour and stimulated with various NLRP3 activators (ATP 5 mM; Sigma, MSU 250 ug/ml; Invivogen, Silica; 200 ug/ml; Invivogen, sodium palmitate; 200 μM; Sigma, ceramide C6 80 μg/ml; Cayman, and sphingosine 40 μM; Cayman, Ann Arbor, Mich.) for 1 hour together with D-BHB or L-(BHB) at indicated concentration. The cell supernatants and cell lysates were collected 1 h after BHB treatment and analyzed for caspase-1 and IL-1β.\nThe BMDM cell lysates were prepared using RIPA buffer and immediately snap frozen in liquid nitrogen. Samples were left on ice for 1 hour with vortexing every 10 min. Samples were then centrifuge at 14,000 g for 15 min, the supernatant was collected and the protein concentration was determined using the DC Protein Assay (Bio-RAD). […] The immune complexes were visualized by incubation with horseradish peroxidase-conjugated anti-rat or anti-rabbit secondary antibody (Amersham Biosciences). Immunoreactive bands were visualized by enhanced chemiluminescence (PerkinElmer Life Sciences)."}}}
{"smiles": "CC(O)CC(=O)O", "note": "(stereo not drawn) [BHB, β-hydroxybutyrate]", "values": [{"measurement": "cellular proliferation", "setting": "BMDMs [1]; 10 mM concentration", "value": "significantly increased"}, {"measurement": "viability of BMDMs", "setting": "BMDMs [1]; increasing concentration of BHB", "value": "did not impair"}, {"measurement": "decline in intracellular K+ in response to MSU", "setting": "BMDMs [2]; BHB 1 h", "value": "prevented the decline"}, {"measurement": "decline in intracellular K+ in response to ATP", "setting": "BMDMs [2]; BHB (10 mM)", "value": "prevented the decline"}, {"measurement": "decline in intracellular K+ in response to ceramides", "setting": "BMDMs [2]; C6 ceramide and BHB 1 h", "value": "prevented the decline"}, {"measurement": "IL1B production from human neutrophils", "setting": "human neutrophils", "value": "inhibit"}, {"measurement": "neutrophil hyperactivation in peritonitis", "setting": "[3]", "value": "prevented"}, {"measurement": "Gout-induced inflammation", "setting": "[4]", "value": "protect"}, {"measurement": "BHB's inhibitory effects on the inflammasome in macrophages lacking Atg5", "setting": "NLRP3 inflammasome; Atg5 deficient BMDMs, LPS, ATP, BHB (10 mM)", "value": "not required"}, {"measurement": "ATP-induced caspase-1 activation without involvement of AMPK", "setting": "NLRP3 inflammasome; BHB (10 mM) with AICAR 2 mM or Compound C 25 μM", "value": "suppressed"}, {"measurement": "ATP-induced IL-1β activation without involvement of AMPK", "setting": "NLRP3 inflammasome; BHB with AICAR or Compound C", "value": "suppressed"}, {"measurement": "inflammasome activation after priming with Pam3-CSK4", "setting": "NLRP3 inflammasome; BMDMs primed with TLR1/2 ligand Pam3-CSK4 4 h, ATP and BHB 1 h", "value": "effectively suppressed"}, {"measurement": "inflammasome activation after priming with lipoteichoic acid (LTA)", "setting": "NLRP3 inflammasome; BMDMs primed with TLR2 agonist LTA 4 h, ATP and BHB 1 h", "value": "effectively suppressed"}, {"measurement": "inflammasome activation after priming with lipid A", "setting": "NLRP3 inflammasome; BMDMs primed with TLR4 agonist lipid A 4 h, ATP and BHB 1 h", "value": "effectively suppressed"}, {"measurement": "BHB's anti-inflammasome effects in BMDMs deficient in GPR109a", "setting": "NLRP3 inflammasome; Gpr109a deficient BMDMs, LPS and ATP, BHB (10, 20 mM)", "value": "could not be abrogated"}, {"measurement": "processing of biologically active p17 form of IL-1β", "setting": "NLRP3 inflammasome; LPS primed BMDMs, ATP and BHB for 60 minutes", "value": "dose-dependently inhibited"}, {"measurement": "ATP-induced caspase-1 cleavage", "setting": "NLRP3 inflammasome; LPS primed BMDMs, ATP and BHB for 60 minutes, Western blot of p20", "value": "dose-dependently inhibited"}, {"measurement": "inflammasome activation by ceramides", "setting": "NLRP3 inflammasome; LPS primed BMDMs, C6 ceramide 6 h (80 μg/ml)", "value": "blocked"}, {"measurement": "monosodium urate (MSU) crystals induced caspase-1 activation", "setting": "NLRP3 inflammasome; LPS primed BMDMs, MSU", "value": "inhibited"}, {"measurement": "inflammasome activation by nigericin", "setting": "NLRP3 inflammasome; LPS primed BMDMs, nigericin (10 μM) 1 h", "value": "blocked"}, {"measurement": "inflammasome activation by palmitate", "setting": "NLRP3 inflammasome; LPS primed BMDMs, palmitate (200 μM) 12 h", "value": "blocked"}, {"measurement": "inflammasome activation by silica particles", "setting": "NLRP3 inflammasome; LPS primed BMDMs, silica 1 hour", "value": "blocked"}, {"measurement": "inflammasome activation by sphingosine", "setting": "NLRP3 inflammasome; LPS primed BMDMs, sphingosine (50 μM) 1 h", "value": "blocked"}, {"measurement": "BHB's inhibitory effects on NLRP3 activation after ablation of Sirt2 or UCP2", "setting": "NLRP3 inflammasome; Sirt2−/− or Ucp2−/− BMDMs, LPS and ATP, BHB (10 mM) 1 h", "value": "did not control"}]}
